Measured values taken from US9539218B2, “Prevention and treatment of thromboembolic disorders” (BAYER INTELLECTUAL PROPERTY GMBH, priority 2005, dated 2017).
Like-named read-outs stand apart in the source and are kept apart here.

Key:
[1] = at steady state in humans, healthy male subjects, multiple dose escalation; cited from earlier work
[2] = test system: patients undergoing elective primary total hip replacement; conditions: for Primary efficacy, composite endpoint (DVT, PE, death) incidence rate / Primary efficacy, composite endpoint, n of patients with event: 7-9 days
Procedure: This was a dose guiding study for the direct factor Xa inhibitor (I). Objective of the study was the assessment of safety, tolerability, and efficacy of (I) at different oral doses (bid and od) compared with subcutaneously administered enoxaparin 40 mg in the prevention of venous thromboembolism.
642 patients were enrolled in this study and the treatment duration was 7 to 9 days.
The main inclusion criteria for the study were: men ≧18 years of age and postmenopausal women undergoing elective primary total hip replacement.
This was a prospective, randomized, open-label, active comparator controlled, multi-center and multi-national trial designed as a proof-of-principle dose-escalating study in patients undergoing elective primary total hip replacement.
(I) was administered orally as rapid release tablets.
The criteria for evaluation were: • a) The primary efficacy endpoint was a composite endpoint of • Any deep vein thrombosis (DVT) (proximal and/or distal). • Non-fatal pulmonary embolism (PE). • Death from all causes. • The primary endpoint was evaluated 5-9 days after surgery.

[3] = (I) 2.5 mg bid oral, PP population N = 63
[4] = (I) 5 mg bid oral, PP population N = 63
[5] = (I) 10 mg bid oral, PP population N = 55
[6] = (I) 20 mg bid oral, PP population N = 59
[7] = (I) 30 mg bid oral, PP population N = 46
[8] = (I) 30 mg od oral, PP population N = 73

O=C(NC[C@H]1CN(c2ccc(N3CCOCC3=O)cc2)C(=O)O1)c1ccc(Cl)s1 [(I), 5-Chloro-N-({(5S)-2-oxo-3-[4-(3-oxo-4-morpholinyl)-phenyl]-1,3-oxazolidin-5-yl}-methyl)-2-thiophenecarboxamide]
plasma concentration half life [1]: 4 to 6 h
DVT rate ([2]; 30 mg (I) once daily for 7 to 9 days, 73 patients undergoing THR surgery): 12.3%
Prevention of venous thromboembolism (VTE) ([2]; 7-9-day treatment, 2.5 to 30 mg bid, adults undergoing elective hip replacement, compared with enoxaparin): prevented venous thromboembolism (VTE)
Primary efficacy, composite endpoint (DVT, PE, death) incidence rate [2, 3]: 22.2%
Primary efficacy, composite endpoint, n of patients with event [2, 3]: 14
Primary efficacy, composite endpoint (DVT, PE, death) incidence rate [2, 4]: 23.8%
Primary efficacy, composite endpoint, n of patients with event [2, 4]: 15
Primary efficacy, composite endpoint (DVT, PE, death) incidence rate [2, 5]: 20.0%
Primary efficacy, composite endpoint, n of patients with event [2, 5]: 11
Primary efficacy, composite endpoint (DVT, PE, death) incidence rate [2, 6]: 10.2%
Primary efficacy, composite endpoint, n of patients with event [2, 6]: 6
Primary efficacy, composite endpoint (DVT, PE, death) incidence rate [2, 7]: 17.4%
Primary efficacy, composite endpoint, n of patients with event [2, 7]: 8
Primary efficacy, composite endpoint (DVT, PE, death) incidence rate [2, 8]: 15.1%
Primary efficacy, composite endpoint, n of patients with event [2, 8]: 11
